For experiment [1], the system named is HCT-116 (colorectal carcinoma) cell line. The experiment in a line: CellTiter-Glo luminescent cell viability assay, HCT-116. The format is cell-based, human. The settings on record: Homo sapiens; for viability at 4 µM: HCT-116, compound at 4 μM; for viability at 4 µM / viability at 10 µM: 72 h; for viability at 10 µM: HCT-116, compound at 10 μM; for pEC50: HCT-116 cell line, 72 h incubation, CellTiter-Glo, read-out: EC50, growth inhibition of HCT-116. The method in brief: (§1)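 Luminescent signal, normalised to diluent-treated cultures, defines % viability; EC50 is the concentration lowering it to 50%. Cells had been exposed to compound for 72 h at 37 °C in medium with 10% FBS, at a constant H2O or DMSO percentage.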

For experiment [2], the system named is MOLM-14 (acute myeloid leukemia) cell line. The experiment can be described thus: CellTiter-Glo luminescent cell viability assay, MOLM-14. Particulars: Homo sapiens; for viability at 4 µM: MOLM-14, compound at 4 μM; for viability at 4 µM / viability at 10 µM: 72 h; for viability at 10 µM: MOLM-14, compound at 10 μM; for pEC50: MOLM-14 cell line, 72 h incubation, CellTiter-Glo, read-out: EC50, growth inhibition of MOLM-14. The format is cell-based, human. The method in brief:
(§2)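 In a 72 h viability assay, compound-treated cells were compared against matched H2O or DMSO diluent controls by luminescence, points in at least duplicate.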
In general terms: Cellular ATP, detected with luciferase, serves as a proxy for viable cell number.

Experiment [3] deals with PANC-1 (prancreatic carcinoma) cell line. The experiment in a line: CellTiter-Glo luminescent cell viability assay, PANC-1. The format is cell-based. Particulars: Homo sapiens; for viability at 4 µM: PANC-1, 4 μM; for viability at 4 µM / viability at 10 µM: 72 h, % of signal of diluent-treated cultures; for viability at 10 µM: PANC-1, 10 μM; for pEC50: PANC-1 cell line, 72 h incubation, CellTiter-Glo, read-out: EC50 (growth inhibition assay of PANC-1 cell line). As to the method: All cell lines were maintained in medium containing 1% penicillin-streptomycin (Dutscher, P06-07100) and 10% Fetal Bovine Serum (Hyclone Dutscher, RZK35922) cultured at 37° C. with 5% CO2. HepG2 (hepatocellular carcinoma), cell line was cultured in Dulbecco's modified Eagle's medium low glucose (Gibco, 21885025), Huh7 (hepatocellular carcinoma), HCT-116 (colorectal carcinoma), PANC-1 (prancreatic carcinoma) and A375 (malignant melanoma) cell lines were cultured in Dulbecco's modified Eagle's medium (Dutscher, L0103). MOLM-14 (acute myeloid leukemia) cell line was maintained in MEM alpha medium (Gibco, 22561-021). 786-0 (renal adenocarcinoma) cell lines were maintained in RPMI 1640 medium (Dutscher, L0498).
Cell viability was measured using the CellTiter-Glo® luminescent cell viability assay as described by the manufacturer (Promega, Ref G7571) using an Infinite F200Pro luminometer (Tecan). Briefly, for adherent cells, cells were plated onto 96-well plates (white with clear bottom) in 90 μL of media per well and were allowed to grow overnight before the assay. For cells growing in suspension, cells were plated onto 96-well plates 1 h before the assay.
Compounds were resuspended in H2O or DMSO and added at different concentrations to each well, and cell cultures were incubated for 72 h. Each diluent (H2O or DMSO) were used as a control, and all compounds were tested in a constant percentage of H2O or DMSO. On the day of the reading, plates are equilibrated 30 min at room temperature before the addition of 100 μL of CellTiter-Glo® and luminescence was measured using an Infinite F200Pro (Tecan). % cell viability were expressed as a percentage of the signal obtained for cell cultures treated with diluent. EC50 values were determined as the dose of compound required to reduce luminescent values to 50% of the signal obtained for cell cultures treated with diluent. The experimental data were analyzed using a computer program, Graphpad Prism v5 (GraphPad Software, Inc. La Jolla, Calif.). All points were at least done in duplicate.

Experiment [4] has as its system Huh7 (hepatocellular carcinoma) cell line. The experiment can be described thus: CellTiter-Glo luminescent cell viability assay, Huh7. The format is cell-based, human. Particulars: Homo sapiens, Huh-7; for viability at 4 µM: Huh7, compound at 4 μM; for viability at 4 µM / viability at 10 µM: 72 h; for viability at 10 µM: Huh7, compound at 10 μM; for pEC50: Huh7 cell line, 72 h incubation, CellTiter-Glo, read-out: EC50, growth inhibition of Huh7. The method, boiled down: as §2

Experiment [5] deals with A375 (malignant melanoma) cell line. The experiment in a line: CellTiter-Glo luminescent cell viability assay, A375. Particulars: Homo sapiens, A-375; for viability at 4 µM: A375, compound at 4 μM; for viability at 4 µM / viability at 10 µM: 72 h; for viability at 10 µM: A375, compound at 10 μM; for pEC50: A375 cell line, 72 h incubation, CellTiter-Glo, read-out: EC50, growth inhibition of A375. Format: cell-based, human. The method in brief:
as §1

For experiment [6], the system named is HepG2 (hepatocellular carcinoma) cell line. The experiment in a line: CellTiter-Glo luminescent cell viability assay, HepG2. Format: cell-based, human. Particulars: Homo sapiens; for viability at 4 µM / viability at 10 µM: HepG2, HepG, 72 h; for viability at 4 µM: compound at 4 μM; for viability at 10 µM: compound at 10 μM; for pEC50: HepG2 cell line, 72 h incubation, CellTiter-Glo, read-out: EC50, growth inhibition of HepG2. The method, boiled down:
as §2

The test system of experiment [7] is 786-O (renal adenocarcinoma) cell line. The experiment in a line: CellTiter-Glo luminescent cell viability assay, 786-O. The format is cell-based, human. The settings on record: Homo sapiens, 786-0; for pEC50: 786-O cell line, 72 h incubation, CellTiter-Glo, read-out: EC50, growth inhibition of 786-O; for viability at 4 µM / viability at 10 µM: 786-O, 72 h; for viability at 4 µM: compound at 4 μM; for viability at 10 µM: compound at 10 μM. The method in brief:
as §1

By viability is commonly meant a read-out of living cells in per cent, often relative to untreated cells. As usually defined, the pEC50 is the negative decadic logarithm of the EC50, by convention in mol/L.

pEC50: −log10 of the molar value.

Consider `N#Cc1c(NCc2ccc(Cl)cc2)nc2ccccc2c1N1CCC(N)C1` (stereo not shown) [Compound 3190CN, 2-(4-chloro-benzylamino)-3-cyano-4-[3-amino-pyrrolidin-1-yl]quinoline], for which the viability at 4 µM in experiment [1] came out at 75.2%; in experiment [2], 78.1%; in experiment [3], 93.7%; in experiment [4] it was 92.7%; in experiment [5] it was 87.3%; in experiment [6], 95.5%. Besides, in experiment [7], the viability at 4 µM was found to be 90.6%. The viability at 10 µM in experiment [1] turned out to be 0.4%; in experiment [2], 2.1%; in experiment [3] it was 56.1%; in experiment [4] it was 1.3%; in experiment [5], 0.8%; in experiment [6], 16%. In addition, in experiment [7], the viability at 10 µM was found to be 1.6%. Also, the pEC50 in experiment [1], in experiment [2], in experiment [4], in experiment [5], in experiment [6] and in experiment [7] was 5.00 to 5.30 throughout.
Take `CC(C)(C)NC1CCN(c2c(C#N)c(Nc3ccc(F)c(F)c3)nc3ccccc23)CC1` [Compound 3264CN, 2-(3,4-difluorophenylamino)-3-cyano-4-[4-(tert-butylamino)piperidin-1-yl]quinoline]: the viability at 4 µM in experiment [1] stood at 0.3%; in experiment [2], 0.4%; in experiment [3], 78.1%; in experiment [4], 11.7%; in experiment [5], 12.8%; in experiment [6], 0.5%. In addition, in experiment [7], the viability at 4 µM amounted to 12.7%. Moreover, the viability at 10 µM in experiment [1] worked out at 0.3%; in experiment [2], 0.5%; in experiment [3] it was 2.4%; in experiment [4], 0.5%; in experiment [5] it was 0.4%; in experiment [6], 0.3%. In addition, in experiment [7], the viability at 10 µM was found to be 0.6%. Also, the pEC50 in experiment [1], in experiment [2], in experiment [4], in experiment [6] and in experiment [7] was 5.30 to 6.30 throughout.
With `Cc1ccc(CNc2nc3ccccc3c(N3CCC(NC(C)(C)C)CC3)c2C#N)cc1` [Compound 3288CN, 2-(4-methylbenzylamino)-3-cyano-4-[4-(tert-butylamino)piperidin-1-yl]quinoline], the viability at 4 µM in experiment [1] was 0.5%; in experiment [2], 62.8%; in experiment [3], 63.5%; in experiment [4], 0.6%; in experiment [5], 0.5%; in experiment [6], 0.6%. The viability at 4 µM in experiment [7] was 1.9%. Also, the viability at 10 µM in experiment [1] amounted to 0.2%; in experiment [2] it was 0.4%; in experiment [3] it was 0.6%; in experiment [4], 0.3%; in experiment [5] it was 0.3%; in experiment [6], 0.3%. In experiment [7], the viability at 10 µM was 0.3%. The pEC50 in experiment [1] was 5.30 to 6.30; in experiment [2] it was 5.30 to 6.30; in experiment [3], 5.00 to 5.30; in experiment [4], 5.30 to 6.30; in experiment [5], 5.30 to 6.30; in experiment [6], 5.30 to 6.30. Besides, the negative-log EC50 (pEC50) in experiment [7] was 5.30 to 6.30.
With `CC(C)(C)NC1CCN(c2c(C#N)c(NCc3ccccc3)nc3ccccc23)CC1` [Compound 3286CN, 2-(benzylamino)-3-cyano-4-[4-(tert-butylamino)piperidin-1-yl]quinoline], the viability at 4 µM is 7.6% in experiment [1]; 90.4% in experiment [2]; 101% in experiment [3]; 75.4% in experiment [4]; 54.5% in experiment [5]; 85% in experiment [6]. The viability at 4 µM in experiment [7] came to 73.5%. In addition, the viability at 10 µM came out at 0.1% in experiment [1]; 60.5% in experiment [2]; 54.8% in experiment [3]; 0.4% in experiment [4]; 0.2% in experiment [5]; 0.4% in experiment [6]. In addition, in experiment [7], the viability at 10 µM is 2.4%. In addition, the pEC50 is 5.00 to 5.30 in experiment [1]; 5.00 to 5.30 in experiment [2]; 5.00 to 5.30 in experiment [3]; 5.00 to 5.30 in experiment [4]; 5.30 to 6.30 in experiment [5]; 5.00 to 5.30 in experiment [6]. For the same compound, the pEC50 in experiment [7] was 5.00 to 5.30.
With `Cc1ccc(OC2CCN(c3c(C#N)c(NCc4ccc(Cl)cc4)nc4ccccc34)CC2)cc1` [Compound 2944CN, 2-(4-chlorobenzylamino)-3-cyano-4-[4-(p-tolyloxy)piperidin-1-yl]quinoline], the viability at 4 µM in experiment [1] stood at 32.8%; in experiment [2], 104%; in experiment [3], 111%; in experiment [4], 93.9%; in experiment [5], 96.9%; in experiment [6], 107%. The viability at 4 µM in experiment [7] was determined as 96%. The viability at 10 µM in experiment [1] amounted to 29.1%; in experiment [2], 92.1%; in experiment [3], 112%; in experiment [4], 89%; in experiment [5], 87.1%; in experiment [6], 84%. For the same compound, the viability at 10 µM in experiment [7] was found to be 95.5%.
`N#Cc1c(NCc2ccc(Cl)cc2)nc2ccccc2c1N1CCC(NC2CCOCC2)C1` (stereo not shown) [Compound 136CN, 2-(4-chloro-benzylamino)-3-cyano-4-{3-[(tetrahydro-2H-pyran-4-yl)-amino]pyrroli-din-1-yl}quinoline]: the viability at 4 µM in experiment [1] turned out to be 73.3%; in experiment [2] it was 95.7%; in experiment [3] it was 91.7%; in experiment [4], 87.6%; in experiment [5], 110%; in experiment [6], 88.6%. The viability at 4 µM in experiment [7] came to 75.7%. Further, the viability at 10 µM in experiment [1] was 17.4%; in experiment [2], 32%; in experiment [3], 63.6%; in experiment [4] it was 50.5%; in experiment [5], 17.4%; in experiment [6], 44.1%. In experiment [7], the viability at 10 µM turned out to be 21.8%.

Source of the values: patent US10577362B2, “Substituted 2, 4-diamino-quinoline derivatives for use in the treatment of proliferative diseases” (GENOSCIENCE PHARMA, priority 2016, dated 2020).
